Legend:
mushroom tyrosinase = test: Tyrosinase activity inhibition (L-DOPA oxidation); assay type: biochemical; conditions: pH 7.0, FIG. 8; for inhibitory effect on tyrosinase activity: 6.25 μM (equal concentration)
Procedure: Samples were dissolved in an organic solvent such as ethanol, which were diluted in a proper buffer such as 100 mM phosphate buffer (pH 7.0). Those samples diluted at a proper concentration in order to inhibit the activity to DOPA oxidation reaction were used as the sample solutions for the experiment. 850 μL of 100 mM phosphate buffer (pH 7.0), 50 μL of the sample solution and 50 μL of mushroom tyrosinase (2000 U/ml) were loaded in a test tube in that order, followed by reaction at 37° C. for 5 minutes. 50 μL of 0.06 mM L-DOPA (L-3,4-dihydroxyphenylalanine) solution was added thereto, and then OD475 was measured using a microplate reader. After reacting the solution at 37° C. for 15 minutes, OD475 was measured again. DMSO was used as the control and Kojic acid was used for the positive control.
Tyrosinase activity inhibition rate (%)=[(A-B)/A]×100
A: difference of OD in the control group (OD after the reaction—OD before the reaction)
B: difference of OD in the experimental group (OD after the reaction—OD before the reaction)

B16F10 melanoma cells = test: Cytotoxicity, MTT assay; assay type: cell-based; conditions: 48 hours; for cytotoxicity: at the concentration of 10 μM or more
Procedure: B16F10 melanoma cells were distributed in a 96-well plate at the density of 2×10^3 cells/well. The cells were cultured in DMEM supplemented with 10% fetal bovine serum (FBS) at 37° C. in 5% CO2 for 24 hours. The cells were exposed on the compounds of example and comparative examples 1˜4 at the set concentration each for 48 hours. MTT assay was performed to evaluate cytotoxicity. To perform MTT assay, MTT solution was added to the cells, followed by reaction for 2 hours. Then, DMSO was added thereto to dissolve formazan crystals, followed by measurement of OD570.

[1] = test system: TRP 1 (tyrosinase-related protein 1) gene expression in B16F10 melanoma cells; test: Inhibition of TRP 1 gene expression (real-time PCR); assay type: cell-based; conditions: α-MSH 10 nM, compound 2 μM, 72 hours, FIG. 4a
Procedure: (§1) B16F10 melanoma cells were distributed in a 6-well plate, to which α-MSH (10 nM) (melanin synthesis inducing substance, alpha-melanocyte-stimulating hormone) and the compounds of example and comparative examples 1˜4 were treated at the concentration of 2 μM each, followed by exposure-culture for 72 hours. Then, the cells were harvested and total RNA of the cells was extracted using RNeasy mini kit (Qiagen). CDNA was synthesized by using M-MLV reverse transcriptase, 5X first-strand butter, dNTP mix and oligo(dT) primer (Thermo Fisher Scientific). The cDNA product, the primers of each gene and LightCycler® MultiplexMasters (Roche) were mixed, followed by SYBR Green-based real-time PCR using LightCycler® NanoInstrument (Roche). To relatively evaluate the level of tyrosinase mRNA expression, the expression was corrected based on the level of β-actin mRNA expression. The PCR conditions for gene amplification are as follows.
(§2) Evaluation of TRP 1 and TRP 2 gene expression was performed by the same manner as described in the evaluation of tyrosinase gene expression. Information on the primers used for the amplification of TRP 1 and TRP 2 gene expression is as follows.

[2] = test system: melanin synthesis in B16F10 melanoma cells; test: Melanin synthesis inhibition; assay type: cell-based; conditions: α-MSH 10 nM, 72 hours
Procedure: B16F10 melanoma cells were distributed in a 96-well plate at the density of 3×10^5 cells/well. The cells were cultured in DMEM supplemented with 10% FBS at 37° C. in 5% CO2 for 24 hours. […] The cells were harvested, followed by dissolving in 1 N NaOH by heating at 80° C. for 20 minutes. Then, OD490 was measured. The melanin synthesis inhibition rate was calculated as follows.
Melanin inhibition rate (%)=[(C−S)/C]×100
C: OD when α-MSH alone was treated.
S: OD when each sample was treated.

[3] = test system: tyrosinase gene expression in B16F10 melanoma cells; test: Inhibition of tyrosinase gene expression (real-time PCR); assay type: cell-based; conditions: α-MSH 10 nM, compound 2 μM, 72 hours, mRNA corrected to β-actin, FIG. 2
Procedure: as §1
Denaturation: 95° C., 10 seconds
Annealing: melting point of each primer, 10 seconds
Extension/Detection: 72° C., 20 seconds
Total cycle number: 45 cycles
Information on the primers used for the amplification of tyrosinase gene expression and information on the primers for β-actin used as a correction gene are as follows.

[4] = Antioxidative effect, DPPH radical scavenging activity test; conditions: 37° C., 30 minutes, FIG. 5
Procedure: The antioxidative effect was evaluated by 2,2-diphenyl-1-picrylhydrazyl (DPPH) radical scavenging activity test.
Dimethyl sulfoxide (DMSO), vitamin C and the compounds of example and comparative examples 1˜4 were added to a 96-well plate at each designated concentration, and 200 μL of 200 μM DPPH methanolic solution was added to each well. The plate was shaken gently to mix them all, followed by reaction at 37° C. for 30 minutes. Then, OD515 was measured. DMSO was used as the control for the measurement of antioxidative effect and vitamin C was used as the positive control for the measurement of antioxidative effect.

[5] = test system: TRP 2 (tyrosinase-related protein 2) gene expression in B16F10 melanoma cells; test: Inhibition of TRP 2 gene expression (real-time PCR); assay type: cell-based; conditions: α-MSH 10 nM, compound 2 μM, 72 hours, FIG. 4b
Procedure: as §1, §2

[6] = test system: MITF (microphthalmia-associated transcription factor) gene expression in B16F10 melanoma cells; test: Inhibition of MITF gene expression (real-time PCR); assay type: cell-based; conditions: α-MSH 10 nM, compound 2 μM, 72 hours, FIG. 3
Procedure: as §1
Evaluation of MITF gene expression was performed by the same manner as described in the evaluation of tyrosinase gene expression in experimental example 1. Information on the primers used for the amplification of MITF gene expression is as follows.

Compound: Oc1ccc(/C=C/C=C/C=C/c2ccc(O)cc2)cc1 [compound 3, 4,4′-((1E,3E,5E)-hexa-1,3,5-triene-1,6-diyl)diphenol]
- inhibitory effect on tyrosinase activity (mushroom tyrosinase): did not show inhibitory effect on tyrosinase activity
- cytotoxicity (B16F10 melanoma cells): strong cytotoxicity

Compound: COc1cccc(/C=C/C=C/C=C/c2cccc(OC)c2OC)c1OC [compound of example, (1E,3E,5E)-1,6-bis(2,3-dimethoxyphenyl)hexa-1,3,5-triene]
- reduction of tyrosinase activity (mushroom tyrosinase; 6.25 μM): approximately 20%
- inhibitory effect on TRP 1 gene expression (relative expression level) [1]: excellent in inhibiting TRP1 and TRP2 gene expression
- melanin content in the cells ([2]; versus comparative examples, FIG. 7): significantly lower
- melanin content in media and cells ([2]; compound 1 μM, versus comparative examples 1˜4, FIG. 7): lower in both media and cells
- inhibitory effect on tyrosinase gene expression (relative expression level) [3]: excellent in inhibiting tyrosinase gene expression
- antioxidative effect (DPPH radical scavenging activity) ([4]; 40 μM, compared with comparative examples 1˜4): excellent antioxidative effect
- antioxidative effect (DPPH radical scavenging activity) ([4]; about 25 μM, compared with comparative examples 1˜3): excellent antioxidative effect
- inhibitory effect on TRP 2 gene expression (relative expression level) [5]: excellent in inhibiting TRP1 and TRP2 gene expression
- cell survival rate (B16F10 melanoma cells; concentration increased from 5 μM to 15 μM, FIG. 6): ≥ 80%
- inhibitory effect on MITF gene expression (relative expression level) [6]: excellent in inhibiting MITF gene expression

Compound: COc1ccc(/N=C/c2ccc(O)cc2O)cc1 [compound 2, (E)-4-((4-methoxyphenylimino)methyl)benzene-1,3-diol]
- inhibitory effect on tyrosinase activity (mushroom tyrosinase): did not show inhibitory effect on tyrosinase activity

Compound: COc1ccc(/C=C/C=C/C=C/c2ccc(OC)c(O)c2)cc1O [compound 4, 5,5′-((1E,3E,5E)-hexa-1,3,5-triene-1,6-diyl)bis(2-methoxyphenol)]
- cytotoxicity (B16F10 melanoma cells): strong cytotoxicity

Compound: COc1cc(/C=C/C=C/C=C/c2ccc(O)c(OC)c2)ccc1O [comparative example 1, 4,4′-((1E,3E,5E)-hexa-1,3,5-triene-1,6-diyl)bis(2-methoxyphenol), reference compound]
- inhibitory effect on tyrosinase gene expression (relative expression level) [3]: hardly had inhibitory effect on the expression of tyrosinase gene
- cytotoxicity (B16F10 melanoma cells): strong cytotoxicity

— patent publication US11166891B2, “Bis phenyl hexa trien derivatives, preparation method thereof, and composition for skin whitening containing the same as an active ingredient” (Korea Research Institute of Chemical Technology, priority 2018, dated 2021)
